Measurements reported in PubChem BioAssay AID1918954 (Molecular Pharmacology Branch, DTP, NCI, 2023).
pIC50: −log10 of the molar value.

Tested on: MDA-MB-468 complex spheroids with HUVEC/MSC, viability
Test: Anticancer human tumor MDA-MB-468 cell line growth inhibition;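 note: spheroids exposed to agents for seven days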;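 for viability, T/C: 100% = DMSO vehicle control viability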
Details: for pIC50: curve of first compound; for viability, T/C: stronger effect = lower value
Method in brief: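 Multicellular complex spheroids of tumor cells with human endothelial cells (HUVEC) and mesenchymal stem cells; the LSD1 inhibitor iadademstat was combined with standard-of-care or investigational agents. Top concentration at or near clinical Cmax, half-log dilutions; final DMSO ≤0.25%.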

Cn1ncnc1C1c2n[nH]c(=O)c3cc(F)cc(c23)NC1c1ccc(F)cc1 (stereo not given) + NC1CCC(NC2CC2c2ccccc2)CC1
pIC50 (second compound 0.1 µM): 7.04
pIC50 (second compound 0.316 µM): < 7.00
pIC50 (second compound 1 µM): < 7.00
pIC50 (second compound 3.16 µM): < 7.00
pIC50 (second compound 10 µM): 7.62
viability, T/C (second compound 0.1 µM, first compound 0.000316 µM): 74.5%
viability, T/C (second compound 0.1 µM, first compound 0.001 µM): 81.9%
viability, T/C (second compound 0.1 µM, first compound 0.00316 µM): 81.3%
viability, T/C (second compound 0.1 µM, first compound 0.01 µM): 71.8%
viability, T/C (second compound 0.1 µM, first compound 0.0316 µM): 70.8%
viability, T/C (second compound 0.1 µM, first compound 0.1 µM): 47.8%
viability, T/C (second compound 0.316 µM, first compound 0.000316 µM): 94.9%
viability, T/C (second compound 0.316 µM, first compound 0.001 µM): 84.6%
viability, T/C (second compound 0.316 µM, first compound 0.00316 µM): 91.5%
viability, T/C (second compound 0.316 µM, first compound 0.01 µM): 76.9%
viability, T/C (second compound 0.316 µM, first compound 0.0316 µM): 70.8%
viability, T/C (second compound 0.316 µM, first compound 0.1 µM): 49.5%
viability, T/C (second compound 1 µM, first compound 0.000316 µM): 65.5%
viability, T/C (second compound 1 µM, first compound 0.001 µM): 85%
viability, T/C (second compound 1 µM, first compound 0.00316 µM): 80.4%
viability, T/C (second compound 1 µM, first compound 0.01 µM): 65.7%
viability, T/C (second compound 1 µM, first compound 0.0316 µM): 60.4%
viability, T/C (second compound 1 µM, first compound 0.1 µM): 50.3%
viability, T/C (second compound 3.16 µM, first compound 0.000316 µM): 80.6%
viability, T/C (second compound 3.16 µM, first compound 0.001 µM): 86.9%
viability, T/C (second compound 3.16 µM, first compound 0.00316 µM): 72.7%
viability, T/C (second compound 3.16 µM, first compound 0.01 µM): 62.7%
viability, T/C (second compound 3.16 µM, first compound 0.0316 µM): 60.3%
viability, T/C (second compound 3.16 µM, first compound 0.1 µM): 54.7%
viability, T/C (second compound 10 µM, first compound 0.000316 µM): 67.5%
viability, T/C (second compound 10 µM, first compound 0.001 µM): 57%
viability, T/C (second compound 10 µM, first compound 0.00316 µM): 62.4%
viability, T/C (second compound 10 µM, first compound 0.01 µM): 56.4%
viability, T/C (second compound 10 µM, first compound 0.0316 µM): 46.7%
viability, T/C (second compound 10 µM, first compound 0.1 µM): 40.3%

NS(=O)(=O)OCC1CC(n2ccc3c(NC4CCc5ccccc54)ncnc32)CC1O (stereo not given) + NC1CCC(NC2CC2c2ccccc2)CC1
pIC50 (second compound 0.1 µM): 7.61
pIC50 (second compound 0.316 µM): 7.55
pIC50 (second compound 1 µM): 7.56
pIC50 (second compound 3.16 µM): 7.69
pIC50 (second compound 10 µM): > 8.02
viability, T/C (second compound 0.1 µM, first compound 0.00949 µM): 74.4%
viability, T/C (second compound 0.1 µM, first compound 0.03 µM): 45%
viability, T/C (second compound 0.1 µM, first compound 0.0949 µM): 16.9%
viability, T/C (second compound 0.1 µM, first compound 0.3 µM): 9.63%
viability, T/C (second compound 0.1 µM, first compound 0.949 µM): 6.43%
viability, T/C (second compound 0.1 µM, first compound 3 µM): 4.54%
viability, T/C (second compound 0.316 µM, first compound 0.00949 µM): 75.9%
viability, T/C (second compound 0.316 µM, first compound 0.03 µM): 48.4%
viability, T/C (second compound 0.316 µM, first compound 0.0949 µM): 17.9%
viability, T/C (second compound 0.316 µM, first compound 0.3 µM): 8.22%
viability, T/C (second compound 0.316 µM, first compound 0.949 µM): 6.34%
viability, T/C (second compound 0.316 µM, first compound 3 µM): 4.71%
viability, T/C (second compound 1 µM, first compound 0.00949 µM): 66%
viability, T/C (second compound 1 µM, first compound 0.03 µM): 48.9%
viability, T/C (second compound 1 µM, first compound 0.0949 µM): 14.8%
viability, T/C (second compound 1 µM, first compound 0.3 µM): 9.7%
viability, T/C (second compound 1 µM, first compound 0.949 µM): 7.19%
viability, T/C (second compound 1 µM, first compound 3 µM): 4.84%
viability, T/C (second compound 3.16 µM, first compound 0.00949 µM): 69.5%
viability, T/C (second compound 3.16 µM, first compound 0.03 µM): 40.7%
viability, T/C (second compound 3.16 µM, first compound 0.0949 µM): 16.4%
viability, T/C (second compound 3.16 µM, first compound 0.3 µM): 8.71%
viability, T/C (second compound 3.16 µM, first compound 0.949 µM): 6.1%
viability, T/C (second compound 3.16 µM, first compound 3 µM): 4.26%
viability, T/C (second compound 10 µM, first compound 0.00949 µM): 46.8%
viability, T/C (second compound 10 µM, first compound 0.03 µM): 27%
viability, T/C (second compound 10 µM, first compound 0.0949 µM): 11.4%
viability, T/C (second compound 10 µM, first compound 0.3 µM): 5.55%
viability, T/C (second compound 10 µM, first compound 0.949 µM): 4.09%
viability, T/C (second compound 10 µM, first compound 3 µM): 3.17%
